Laboratory results: the supplement of paper PMC10307832

What follows are cell lines tested with CC[C@@H]1C(=O)N(C)c2cnc(Nc3ccc(C(=O)NC4CCN(C)CC4)cc3OC)nc2N1C1CCCC1 [BI-2536] + Cc1cc(Nc2cc(N3CCN(C)CC3)nc(Sc3ccc(NC(=O)C4CC4)cc3)n2)n[nH]1 [Tozasertib] (partner 0.1 µM) (assay: relative viability (nuclei count vs DMSO), 5 days (fraction); higher = more cells survive). Settings: first compound 0.01 µM.
Outline: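 Nuclei were stained with Hoechst during a one-step fixation (final 0.05% Triton X-100, 1% formaldehyde, 1 ug/ml Hoechst) carried out 5 days after dosing, then counted on 4× images. The cells, lung cancer lines in 1536-well plates, had been dosed by pin tool the day after seeding with one drug alone or a fixed anchor-drug dose plus five library-drug doses (not always all listed) in √10 steps. Relative viability is the nuclei count in treated wells divided by that in vehicle wells, and each value is the median of duplicate plates.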
With HARA the relative viability was 0.109.
NCI-H322M was tested, and the relative viability was 0.517.
LCLC-97TM1 was tested, and the relative viability was 0.236.
NCI-H2009 was tested, and the relative viability was 0.769.
In the case of A-427, the relative viability is reported as 0.187.
NCI-H441 showed a relative viability of 0.557.
For NCI-H661, the relative viability was 0.367.
NCI-H1734 gave a relative viability of 0.251.
Work on NCI-H460 yielded a relative viability of 0.367.
With SK-LU-1 the relative viability was 0.323.
NCI-H1395 was tested, and the relative viability was 0.668.
201T showed a relative viability of 0.996.
For NCI-H1915, the relative viability was 0.486.
HCC-827 showed a relative viability of 0.45.
With LXF-289 the relative viability was 0.216.
In the case of NCI-H23, the relative viability is reported as 0.331.
For NCI-H647, the relative viability was 0.34.
CAL-12T was tested, and the relative viability was 0.291.
NCI-H1651 was tested, and the relative viability was 0.685.
For EPLC-272H, the relative viability was 0.187.
NCI-H2228 was tested, and the relative viability was 0.285.
Cell Line NCI-H1355 has a relative viability of 0.528.
Work on NCI-H3122 yielded a relative viability of 0.363.
NCI-H1437 showed a relative viability of 0.465.
Cell Line NCI-H1755 has a relative viability of 0.559.
For NCI-H2023, the relative viability was 0.389.
HCC-15 gave a relative viability of 0.461.
With NCI-H1793 the relative viability was 0.331.
PC-14 showed a relative viability of 0.577.
Work on EKVX yielded a relative viability of 0.321.

Same assay, conditions: first compound 0.03162 µM
Work on BEN yielded a relative viability of 0.546.
In the case of HARA, the relative viability is reported as 0.127.
Cell Line NCI-H322M has a relative viability of 0.451.
For LCLC-97TM1, the relative viability was 0.184.
NCI-H2009 was tested, and the relative viability was 0.667.
With A-427 the relative viability was 0.211.
Work on NCI-H441 yielded a relative viability of 0.352.
For NCI-H661, the relative viability was 0.373.
With NCI-H1734 the relative viability was 0.271.
In the case of NCI-H460, the relative viability is reported as 0.477.
For NCI-H2347, the relative viability was 0.503.
SK-LU-1 showed a relative viability of 0.317.
With NCI-H1395 the relative viability was 0.729.
For 201T, the relative viability was 0.925.
Cell Line NCI-H1915 has a relative viability of 0.292.
Cell Line HCC-827 has a relative viability of 0.414.
With LXF-289 the relative viability was 0.214.
Work on NCI-H23 yielded a relative viability of 0.458.
NCI-H647 gave a relative viability of 0.433.
Cell Line CAL-12T has a relative viability of 0.294.
NCI-H1651 gave a relative viability of 0.795.
Work on EPLC-272H yielded a relative viability of 0.252.
With NCI-H2228 the relative viability was 0.195.
For NCI-H1355, the relative viability was 0.434.
With NCI-H3122 the relative viability was 0.207.
Cell Line NCI-H1437 has a relative viability of 0.432.
In the case of NCI-H1755, the relative viability is reported as 0.595.
NCI-H2023 was tested, and the relative viability was 0.461.
In the case of HCC-15, the relative viability is reported as 0.389.
In the case of NCI-H1793, the relative viability is reported as 0.33.
Work on PC-14 yielded a relative viability of 0.568.
EKVX gave a relative viability of 0.482.

Same assay, conditions: first compound 0.1 µM
In the case of BEN, the relative viability is reported as 0.452.
HARA gave a relative viability of 0.114.
NCI-H322M showed a relative viability of 0.571.
LCLC-97TM1 was tested, and the relative viability was 0.176.
Cell Line NCI-H2009 has a relative viability of 0.459.
Cell Line A-427 has a relative viability of 0.189.
NCI-H441 gave a relative viability of 0.274.
Work on NCI-H661 yielded a relative viability of 0.384.
Cell Line NCI-H1734 has a relative viability of 0.26.
NCI-H460 was tested, and the relative viability was 0.336.
With NCI-H2347 the relative viability was 0.465.
SK-LU-1 showed a relative viability of 0.323.
NCI-H1395 showed a relative viability of 0.642.
201T gave a relative viability of 0.93.
NCI-H1915 showed a relative viability of 0.232.
With HCC-827 the relative viability was 0.428.
LXF-289 was tested, and the relative viability was 0.206.
Cell Line NCI-H23 has a relative viability of 0.182.
Cell Line NCI-H647 has a relative viability of 0.209.
Work on CAL-12T yielded a relative viability of 0.2.
Work on NCI-H1651 yielded a relative viability of 0.429.
Work on EPLC-272H yielded a relative viability of 0.215.
NCI-H2228 gave a relative viability of 0.187.
NCI-H1355 gave a relative viability of 0.295.
NCI-H3122 was tested, and the relative viability was 0.266.
NCI-H1437 gave a relative viability of 0.389.
Cell Line NCI-H1755 has a relative viability of 0.477.
Cell Line NCI-H2023 has a relative viability of 0.234.
With HCC-15 the relative viability was 0.195.
NCI-H1793 gave a relative viability of 0.277.
In the case of PC-14, the relative viability is reported as 0.548.
EKVX showed a relative viability of 0.394.

Same assay, conditions: first compound 0.3162 µM
With BEN the relative viability was 0.58.
HARA was tested, and the relative viability was 0.0998.
In the case of NCI-H322M, the relative viability is reported as 0.445.
With LCLC-97TM1 the relative viability was 0.182.
NCI-H2009 gave a relative viability of 0.321.
Cell Line A-427 has a relative viability of 0.15.
Cell Line NCI-H441 has a relative viability of 0.293.
NCI-H661 was tested, and the relative viability was 0.316.
Cell Line NCI-H1734 has a relative viability of 0.253.
NCI-H460 showed a relative viability of 0.0323.
NCI-H2347 showed a relative viability of 0.295.
Work on SK-LU-1 yielded a relative viability of 0.218.
For NCI-H1395, the relative viability was 0.399.
201T was tested, and the relative viability was 0.41.
NCI-H1915 gave a relative viability of 0.171.
HCC-827 showed a relative viability of 0.376.
LXF-289 gave a relative viability of 0.0925.
NCI-H23 showed a relative viability of 0.142.
Cell Line NCI-H647 has a relative viability of 0.132.
Cell Line CAL-12T has a relative viability of 0.194.
With NCI-H1651 the relative viability was 0.104.
EPLC-272H showed a relative viability of 0.148.
NCI-H2228 was tested, and the relative viability was 0.139.
With NCI-H1355 the relative viability was 0.212.
NCI-H3122 gave a relative viability of 0.297.
In the case of NCI-H1437, the relative viability is reported as 0.333.
NCI-H1755 gave a relative viability of 0.344.
In the case of NCI-H2023, the relative viability is reported as 0.11.
HCC-15 was tested, and the relative viability was 0.14.
NCI-H1793 gave a relative viability of 0.217.
PC-14 was tested, and the relative viability was 0.045.
EKVX showed a relative viability of 0.202.

Same assay, conditions: first compound 1 µM
In the case of BEN, the relative viability is reported as 0.553.
HARA showed a relative viability of 0.128.
Work on NCI-H322M yielded a relative viability of 0.377.
In the case of LCLC-97TM1, the relative viability is reported as 0.178.
For NCI-H2009, the relative viability was 0.23.
In the case of A-427, the relative viability is reported as 0.146.
Cell Line NCI-H441 has a relative viability of 0.31.
NCI-H661 showed a relative viability of 0.31.
Work on NCI-H1734 yielded a relative viability of 0.26.
Cell Line NCI-H460 has a relative viability of 0.0403.
NCI-H2347 gave a relative viability of 0.352.
Work on SK-LU-1 yielded a relative viability of 0.176.
For NCI-H1395, the relative viability was 0.285.
Cell Line 201T has a relative viability of 0.388.
For NCI-H1915, the relative viability was 0.166.
HCC-827 was tested, and the relative viability was 0.308.
LXF-289 was tested, and the relative viability was 0.11.
NCI-H23 was tested, and the relative viability was 0.141.
For NCI-H647, the relative viability was 0.103.
With CAL-12T the relative viability was 0.186.
NCI-H1651 was tested, and the relative viability was 0.0989.
EPLC-272H was tested, and the relative viability was 0.164.
With NCI-H2228 the relative viability was 0.11.
In the case of NCI-H1355, the relative viability is reported as 0.195.
Cell Line NCI-H3122 has a relative viability of 0.246.
Cell Line NCI-H1437 has a relative viability of 0.237.
With NCI-H1755 the relative viability was 0.317.
For NCI-H2023, the relative viability was 0.108.
With HCC-15 the relative viability was 0.108.
NCI-H1793 showed a relative viability of 0.186.
PC-14 gave a relative viability of 0.0586.
Work on EKVX yielded a relative viability of 0.132.
